Reference: patent US20230234920A1, “Azirine Containing Compounds as Anti-Angiogenesis Agents and a Process for the Preparation Thereof” (COUNCIL OF SCIENTIFIC & INDUSTRIAL RESEARCH, priority 2020, published 2023)

Assays:
[1] = tested on: HUVECs; test: Capillary-like tube formation assay (tubulogenesis); assay type: cell-based, human; details: for IC50: Homo sapiens, HUVEC, endothelial tubule network assay, anti-angiogenic activity, read-out: IC50 value; for tubule formation: 6 h
Method in brief: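 HUVECs seeded on Matrigel (regular or reduced growth factor) in incomplete ECM basal medium, treated with compound for 6 h; VEGF 50 ng/mL positive and sunitinib 50 nM negative controls. Calcein-AM-stained tubules imaged at 10× and tubule length expressed as % of 0.1% DMSO vehicle.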

[2] = tested on: HCT116 colon tumor; test: HCT116 colon tumor model in nude mice; assay type: in vivo
Description: FIG. 12 represents Compound 1 inhibited tumor growth in vivo. Tumor sizes were recorded every alternate day by Vernier caliper measurements and calculated as [4/3*[…]*(length/2)*(width/2)]. (A) Nude mice with induced HCT116 tumor were given vehicle to the control group, sunitinib at (40 mg/kg) as a standard drug given orally and Compound 1 at (25 mg/kg) through IP route for 21 days and tumor regression was calculated for all groups. (B) Nude Mice with induced HCT116 colon tumor were given both, sunitinib and Compound 1 at (25 mg/kg) intra-muscularly for 15 days after attaining a tumor size of 100 mm^3, tumor volume reduction for treated groups were calculated and compared with control. Data are expressed as means±S.E.M. (6 mice/group) with significant difference compared with control at p<0.0001.
HCT 116 (Human colon cancer cell line) cells were trypsinised and the pellet was dissolved in ice chilled 1×PBS. HCT 116 cells suspension to a concentration of (1*10^6) cells in 50 μL PBS solution, were left on ice with occasional agitation. Mice were anaesthetized with ketamine: xylazine (100:10 mg/kg), abdominal side area was shaved and sterilized using 70% ethanol. 50 μL of cell suspension was injected slowly subcutaneously to all the mice. After 2 days, booster dose of tumor cells was injected to all mice as performed previously. The growth of the tumor was measured by using vernier caliper on day 2, 4, 6, 8, 10, 12, 14, 16 18, 20, 23 and presented in the form of tumor volume (mm^3)=[4/3*π*(long axis/2)*(short axis/2)]. After attaining a volume of 100 mm^3 of tumor size, all mice were distributed equally (n=6−8) in 3 groups of controls received vehicle (Olive oil). Sutent (25 mg/kg) as a positive control was given orally and Compound 1 (25 mg/kg) dissolved in olive oil was injected intra-muscularly for 15 days and the tumor size regression was measured on every alternate day as described previously. Post 15 days of treatment, mice from all groups were sacrificed and tumor was excised out and processed further for immunohistochemistry and molecular analysis.

[3] = tested on: chick CAM; test: CAM (chick chorio-allantoic membrane) assay; assay type: in vivo; details: 2 μM
Description: (A) Chick CAM assays were used to observe the effect of Compound 1 on angiogenesis in vivo. 1 mm^2 window was made in 8 days old chicken eggs to expose the CAM, and a gelatin disc ([…]) treated with vehicle (0.1% DMSO), sunitinib and Compound 1 at a indicated concentrations were placed on the CAM surface. Post 4 days of incubation, the discs and associated CAM were photographed and excised out, for hemoglobin estimation by drapkin's reagent. (B) Blood vessel density was calculated and Hb. concentration was measured and representative graph was plotted for the control and treatment group and data are represented as mean±SEM with significant difference from control at *p<0.05, **p<0.01 and ***p<0.001.
The eggs were incubated horizontally for 3 days at 37° C. in a 60% humidified atmosphere, using a hybridization incubator (combi-SV 12) with one hour scheduled rotation. Post 3 days of incubation, 2-3 mL of albumin was aspirated from the acute pole of the egg to create false air sac directly over the CAM. Post fertilization (Day 8), a fine blade was used to make an approximate 0.5 cc square incision on the eggshell under sterile conditions and the eggshell window fragment was removed to access the CAM beneath. A piece of gelatin sponge embedded in Compound 1 (500 nM and 250 nM) and sunitinib (2 μM) individually were placed on the CAM of the chicken embryo and incubated for 12 days. Sterile parafilm tape was used to seal back the window and the eggs were further incubated without the rotation setting. After 12 days of incubation the CAM integration was assessed by visual inspection and photographed with a digital camera (Canon EOS); the CAM membrane along with gelatin sponge were harvested and its hemoglobin (Hb.) estimation was done by Drabkin's method according to the manufacturer's protocol (Sigma, St. Louis, Mo.). Absorbance was measured at 540 nm and hemoglobin concentration was calculated.

| melting point [°C] | Compound | IC50 [1] [nM] | growth of HCT116 cells xenografts ([2]; 25 mg/kg, 15 days) | tumor volume ([2]; 40 mg/kg orally for 21 days, vs vehicle) | tumor reduction ([2]; in comparison to vehicle treated control group, end of experiment) [%] | hemoglobin content [3] [µg/mL] | tubule formation ([1]; 20 nM) [%] | tubule formation ([1]; 50 nM) [%] |
| --- | --- | --- | --- | --- | --- | --- | --- | --- |
| 55 to 57 | CCOC(=O)C1N=C1CCc1ccc(OC)c(OC)c1 (stereo not shown) [Compound 34, Ethyl 3-(3,4-dimethoxyphenethyl)-2H-azirine-2-carboxylate] | 250 |  |  |  |  |  |  |
| 119 to 121 | CCOC(=O)C1N=C1/C=C/c1ccc(N(C)C)cc1 (stereo not shown) [Compound 46, Ethyl (E)-3-(4-(dimethylamino)styryl)-2H-azirine-2-carboxylate] | 500 |  |  |  |  |  |  |
|  | Sunitinib Maleate [reference compound] |  | powerful inhibitory effect | progressive significant decrease in tumor volume | 54.58 | 100 | 40 | 25 |
